Assay results reported in patent US7858597B2, “Preparation of formulations of angiotensin II AT1 receptors antagonists for the treatment of arterial hypertension, other cardiovascular illnesses and its complications” (Universidade Federal De Mimas Gerais - UFMG, priority 2001, dated 2010).
Where two headings read alike, the source gives them in different places.

Experiments:
[1] = cited from earlier work
pressor effect of Ang II [2] = experiment: Pressor effect of Ang II in rats after subcutaneous losartan or losartan incorporated in biodegradable polymer (telemetric recording of arterial pressure); format: in vivo; details: losartan 0.7 mg
Method: Male rats weighing (330-350 g) instrumented for telemetric recording of arterial pressure (Data Science System) were anesthetized and submitted to the implantation of […] femoral vein. […] Injections of Ang II were made after 2, 8 and 24 hours and then at intervals of 24 hours, for 15 days.

[3] = cited from earlier work; remark: listed apart in the source
pressor effect of Ang II [4] = experiment: Pressor effect of Ang II in rats after losartan or losartan included in cyclodextrin (gavage); format: in vivo; details: losartan 0.2 mg/Kg, tested 2, 6, 24 and 48 hours after
[5] = cited from earlier work; remark: listed apart in the source
[6] = cited from earlier work; remark: listed apart in the source
[7] = target: T1, ANGIOTENSIN II AT1 receptor (Homo sapiens, UniProt P30556); details: cited from earlier work
T1 sequence (P30556 1-359): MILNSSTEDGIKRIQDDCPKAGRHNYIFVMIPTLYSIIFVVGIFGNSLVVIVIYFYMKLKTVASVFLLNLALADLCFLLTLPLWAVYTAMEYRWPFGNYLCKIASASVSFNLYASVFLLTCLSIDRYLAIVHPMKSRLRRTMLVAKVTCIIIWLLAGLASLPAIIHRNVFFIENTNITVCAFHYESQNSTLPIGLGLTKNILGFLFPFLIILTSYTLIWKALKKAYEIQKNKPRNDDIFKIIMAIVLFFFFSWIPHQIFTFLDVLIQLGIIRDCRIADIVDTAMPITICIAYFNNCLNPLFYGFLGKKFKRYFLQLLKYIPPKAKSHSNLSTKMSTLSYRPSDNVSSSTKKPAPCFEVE

CC[C@H](C)[C@H](NC(=O)[C@H](CCC(N)=O)NC(=O)[C@@H]1CCCN1C(=O)[C@H](CCCNC(=N)N)NC(=O)[C@@H]1CCCN1C(=O)[C@H](Cc1c[nH]c2ccccc12)NC(=O)[C@@H]1CCC(=O)N1)C(=O)N1CCC[C@H]1C(=O)N1CCC[C@H]1C(=O)O [teprotide]
anti-hypertensive action ([1]; intravenous route): has an anti-hypertensive action
anti-hypertensive action ([1]; oral route): inactive

CCCCc1nc(Cl)c(CO)n1Cc1ccc(-c2ccccc2-c2nn[nH]n2)cc1 [Losartan]
duration of blockade of the Ang II effect (pressor effect of Ang II [2]): about 8 hours
half-life ([3]; in vivo): about two
excreted as EXP-3174 ([3]; oral dose): 8%
excreted with the losartan ([3]; oral dose): 5%
duration of blockade of the pressor effect of Ang II (pressor effect of Ang II [4]): about 8 hours
solubility ([5]; in alcohol): soluble
solubility ([5]; in common organic solvents, such as acetonitrile and methyl-ethyl-cetone): slightly soluble
solubility ([5]; in water): soluble

CCCc1nc2c(C)cc(-c3nc4ccccc4n3C)cc2n1Cc1ccc(-c2ccccc2C(=O)O)cc1 [Telmisartan]
bioavailability ([3]; in vivo): 45%
excreted by the bile ([3]; in vivo): 97%

CCOc1nc2cccc(C(=O)O)c2n1Cc1ccc(-c2ccccc2-c2nnn[nH]2)cc1 [Candesartan]
bioavailability ([3]; in vivo): about 40%
half-life ([3]; in vivo): 9 h

CCOC(=O)[C@H](C)C[C@@H](C)C(=O)N1c2ccccc2C[C@H]1C(=O)O [Pentopril]
stability in the human plasma [6]: highly stable

CCCCc1ncc(/C=C(\Cc2cccs2)C(=O)O)n1Cc1ccc(C(=O)O)cc1 [Eprosartan, (E)-a-[[2-butyl-1-[(4-carboxyphenyl)metyl]-1H-imidazol-5-yl]methylene]-2-thiofenepropanoic acid]
eliminated through the feces ([3]; in vivo): Approximately 90%
time to peak of maximum concentration ([3]; in vivo): about 2 hours
binding / affinity for the Ang II AT1 receptor [7]: high affinity

CCCCc1nc(Cl)c(CC(=O)[O-])n1Cc1ccccc1Cl.[Na+] [S-8307]
binding / affinity for the Ang II AT1 receptor [7]: weak binding

CCCCC1=NC2(CCCC2)C(=O)N1Cc1ccc(-c2ccccc2-c2nnn[nH]2)cc1 [Irbersartan]
excreted by the bile ([3]; in vivo): 80%

CCCCc1nc(Cl)c(CC(=O)[O-])n1Cc1ccccc1[N+](=O)[O-].[Na+] [S-8308]
binding / affinity for the Ang II AT1 receptor [7]: weak binding

CCCCC(=O)N(Cc1ccc(-c2ccccc2-c2nnn[nH]2)cc1)[C@H](C(=O)O)C(C)C [Valsartan, 1-oxopentyl-N′[[2′-(1H-tetrazole-5-yl)[1,1′-biphenyl]-4-yl]methyl]-L-vaniline]
half-life ([3]; in vivo): 9 h
time to peak of maximum concentration ([3]; in vivo): about 2 hours
